Results taken from PubChem BioAssay AID1648 (Sanford-Burnham Center for Chemical Genomics, 2009).
Active and inactive are the calls of the source. The rule behind the calls is not given here.

molecular target: Serine/threonine-protein kinase mTOR (Homo sapiens) (UniProt P42345); test: mTOR FRB domain ligand binding – biophysical, NMR (AID 1648); conditions: NMR binding to FRB domain, chemical shift
Sequence (P42345 2015-2114): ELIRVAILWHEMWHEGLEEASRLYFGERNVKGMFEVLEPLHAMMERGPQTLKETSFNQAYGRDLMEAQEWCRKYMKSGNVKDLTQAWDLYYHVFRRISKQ

Row | SMILES | Kd
1 | Nc1ncnc(NCCCO)c1[N+](=O)[O-] | > 4 mM (inactive)
2 | Cc1nnc(SCc2ccc(F)cc2)s1 | > 4 mM (inactive)
3 | O=C1CC(=O)N(Cc2ccco2)C(=S)N1 | > 4 mM (inactive)
4 | O=c1[nH]oc2ccccc12 | > 4 mM (inactive)
5 | S=C(NCc1ccco1)NN1CCOCC1 | > 4 mM (inactive)
6 | CC(=O)NS(=O)(=O)c1ccc(C)cc1 | > 4 mM (inactive)
7 | O=C(O)c1csc(-c2ccccc2)n1 | > 4 mM (inactive)
8 | COc1ccc(N=C2NC(=O)CS2)cc1 | > 4 mM (inactive)
9 | O=C(Nc1ccc(N2CCOCC2)cc1)C1CC1 | > 4 mM (inactive)
10 | COc1ccccc1NC(=O)CCC(=O)O | > 4 mM (inactive)
11 | NC(=O)c1ccccc1NC(=O)c1cccnc1 | > 4 mM (inactive)
12 | CCOC(=O)c1ccc2c(c1)nnn2C | > 4 mM (inactive)
13 | COc1ccc2[nH]cc(CCNC(C)=O)c2c1 | > 4 mM (inactive)
14 | CS(=O)(=O)N1CCN(c2ncccn2)CC1 | > 4 mM (inactive)
15 | O=C1CC(=O)N(c2ccccc2)C(=O)N1 | > 4 mM (inactive)
16 | CC(=O)Nc1ccc(NC(=O)/C=C\C(=O)O)cc1 | > 4 mM (inactive)
17 | CCOC(=O)c1snnc1-c1ccccc1 | > 4 mM (inactive)
18 | COC(=O)CC1NC2CCCCC2NC1=O (stereo not drawn) | > 4 mM (inactive)
19 | Cc1occc1C(=O)Nc1nnc(C(F)(F)F)s1 | > 4 mM (inactive)
20 | O=C(Nc1cccnc1)N1CCOCC1 | > 4 mM (inactive)
21 | NC(=O)C1CCN(C2CC(=O)NC2=O)CC1 (stereo not drawn) | > 4 mM (inactive)
22 | CN1C(=O)CC(=O)N(C)c2ccccc21 | > 4 mM (inactive)
23 | O=c1[nH]c(=S)[nH]c2c1CCC2 | > 4 mM (inactive)
24 | O=[N+]([O-])c1cccc2c1nnn2C(CO)OCCO (stereo not drawn) | > 4 mM (inactive)

Row | SMILES | Kd
25 | CCCC(=O)N1CCSCC1 | > 4 mM (inactive)
26 | CC(=O)O[C@@H]1c2c(ccc3ccc(=O)oc23)OC(C)(C)[C@@H]1OC(=O)CC(C)C | > 4 mM (inactive)
27 | O=C1NC(=S)NC(=O)C1=Cc1ccccc1O | > 4 mM (inactive)
28 | NC(=O)c1ccccc1NC(=O)C1CCCO1 (stereo not drawn) | > 4 mM (inactive)
29 | O=S(=O)(c1ccc(F)c(Cl)c1)N1CCCC1 | > 4 mM (inactive)
30 | N[C@@H](Cc1ccc(O)c(O)c1)C(=O)O | > 4 mM (inactive)
31 | CN1CCN(c2ccc(C(=O)O)cc2)CC1 | > 4 mM (inactive)
32 | CCOc1ccc(C(=O)c2ccncc2)cc1 | > 4 mM (inactive)
33 | O=C(O)c1ccc(CN2CCCCC2)o1 | > 4 mM (inactive)
34 | Nc1nnc(SCc2ccccc2Cl)s1 | > 4 mM (inactive)
35 | O=C1NC(=O)/C(=C\c2ccncc2)S1 | > 4 mM (inactive)
36 | COC(=O)[C@@H]1C(O)CC[C@H]2CN3CCc4c([nH]c5ccccc45)[C@@H]3C[C@@H]21 (stereo partly drawn) | > 4 mM (inactive)
37 | CS(=O)(=O)c1nncn1-c1ccccc1 | > 4 mM (inactive)
38 | Nc1ccc(Cc2ccncc2)cc1 | > 4 mM (inactive)
39 | OC1CCN(c2nccc(C(F)(F)F)n2)CC1 | > 4 mM (inactive)
40 | O=C(NCc1ccccc1F)c1cccs1 | > 4 mM (inactive)
41 | COC(=O)[C@]1(C)CCC[C@]2(C)c3ccc(C(C)C)cc3C(=O)CC12 (stereo partly drawn) | > 4 mM (inactive)
42 | O=C(O)c1cc2ccccc2s1 | > 4 mM (inactive)
43 | O=C1CCCN1C(=O)c1ccc(F)cc1 | > 4 mM (inactive)
44 | O=C(NCCO)c1ccccc1I | > 4 mM (inactive)
45 | NC(=O)CSc1nc2ccccc2o1 | > 4 mM (inactive)
46 | O=C(NC(=S)NCc1cccnc1)c1ccco1 | > 4 mM (inactive)
47 | O=C(O)C1COc2ccccc2O1 (stereo not drawn) | > 4 mM (inactive)
48 | CS(=O)(=O)CCCCN=C=S | > 4 mM (inactive)

Row | SMILES | Kd
49 | Cc1nnc2sc(-c3csc4c3CCCC4)nn12 | > 4 mM (inactive)
50 | CC(C)c1ccc2c(c1O)CC[C@H]1C3=C(CC[C@]21C)C(=O)OC3 | > 4 mM (inactive)
51 | CN1CCN(CC(=O)Nc2ccccc2)CC1 | > 4 mM (inactive)
52 | Nc1cccc(S(=O)(=O)N2CCCCC2)c1 | > 4 mM (inactive)
53 | Cc1cc(C(=O)N2CCN(c3ncccn3)CC2)cs1 | > 4 mM (inactive)
54 | CC(=O)O[C@H]1C[C@@H](OC(C)=O)C(C)(C)C2C[C@@H](O)[C@]3(C)C(CC[C@@]4(C)[C@H](c5ccoc5)OC(=O)[C@H]5O[C@]543)[C@]21C (stereo partly drawn) | > 4 mM (inactive)
55 | Cn1ncc2c(=O)n(CC(=O)c3ccccc3)cnc21 | > 4 mM (inactive)
56 | Nn1cnn2c(SCc3ccccc3)nnc12 | > 4 mM (inactive)
57 | N=C1/C(=C\c2ccco2)C(=O)N=C2SC=NN12 | > 4 mM (inactive)
58 | Cc1nc(-c2ccccc2)sc1CO | > 4 mM (inactive)
59 | Cc1cc(NC(=O)CSc2ccnc(=O)[nH]2)no1 | > 4 mM (inactive)
60 | CNC(=O)c1cc(C)c(-c2ccccc2)s1 | > 4 mM (inactive)
61 | NC12CC3CC(C1)CC(O)(C3)C2 | > 4 mM (inactive)
62 | CP(C)(=O)CCC(=O)O | > 4 mM (inactive)
63 | CCOC(=O)CSc1nnc(C)c(=O)[nH]1 | > 4 mM (inactive)
64 | Nc1cccc2nsnc12 | > 4 mM (inactive)
65 | Nc1c(S(=O)(=O)c2ccccc2)csc1C(=O)O | > 4 mM (inactive)
66 | C[n+]1cccc(C(=O)[O-])c1 | > 4 mM (inactive)
67 | NC(Cn1ccc(=O)c(O)c1)C(=O)O (stereo not drawn) | > 4 mM (inactive)
68 | NCCNC(=S)Nc1ccccc1 | > 4 mM (inactive)
69 | Nc1ccnc(C(=O)O)c1 | > 4 mM (inactive)
70 | O=C1CCC(=O)N1c1cccnc1 | > 4 mM (inactive)
71 | COCC(=O)Nc1cccc(Br)c1 | > 4 mM (inactive)
72 | O=C1NC(=S)N/C1=C\c1cccc([N+](=O)[O-])c1 | > 4 mM (inactive)

Row | SMILES | Kd
73 | CC1(C)C(=O)C=C[C@@]2(C)C1C[C@@H](O)[C@]1(C)C2CC[C@@]2(C)[C@H](c3ccoc3)OC(=O)[C@H]3O[C@]321 (stereo partly drawn) | > 4 mM (inactive)
74 | O=C(O)[C@H](O)[C@@](O)(Cc1ccc(O)cc1)C(=O)O | > 4 mM (inactive)
75 | CC(=O)c1c(C)nn(CC(=O)O)c1C | > 4 mM (inactive)
76 | Cc1onc(-c2c(F)cccc2Cl)c1C(N)=O | > 4 mM (inactive)
77 | CC12CNCC(C)(CNC1)C2O (stereo not drawn) | > 4 mM (inactive)
78 | CC1=NN(c2ccc(N)cc2)C(=O)C1 | > 4 mM (inactive)
79 | O=C(CNC(=O)c1cccs1)NC1=NCCS1 | > 4 mM (inactive)
80 | Cc1noc(C)c1C(=O)NC1=NCCS1 | > 4 mM (inactive)
81 | NC(=O)c1cccnc1Oc1ccccc1 | > 4 mM (inactive)
82 | COc1cc(OC)c(-c2nc3cnccc3n2C)cc1OC | > 4 mM (inactive)
83 | CC(=O)Nc1nnc(-c2ccncc2)s1 | > 4 mM (inactive)
84 | O=C(O)CCCc1nc2ccccc2s1 | > 4 mM (inactive)
85 | CC(=O)O[C@@H]1C[C@@]2(C)[C@H](c3ccoc3)C[C@H]3O[C@]32[C@]2(C)C(=O)C(O)=C3C(C)(C)C(=O)C=C[C@]3(C)C12 (stereo partly drawn) | > 4 mM (inactive)
86 | CC(C)/C(O)=C1/C(=O)O[C@@H](c2ccoc2)[C@]2(C)C(O)[C@@H](O)[C@@]34OC5(C)OC67CC(C)(C(O)[C@]6(O)[C@@H](O)[C@]3(O5)C12)[C@H](CC(=O)O)[C@]74C (stereo partly drawn) | > 4 mM (inactive)
87 | Cc1nc2sc3c(c2c(=N)n1N)CC(C)(C)OC3 | > 4 mM (inactive)
88 | NC(=O)CSc1ccc(-c2ccco2)nn1 | > 4 mM (inactive)
89 | O=c1[nH]cc(N2CCCCC2)c(=O)[nH]1 | > 4 mM (inactive)
90 | COc1ccc2c(c1)OC/C(=C\c1ccc(OC)c(O)c1)C2=O | > 4 mM (inactive)
91 | CC1CC[C@@]2(OC1)O[C@H]1CC3C4CC[C@@H]5C[C@@H](O)CC[C@]5(C)C4CC[C@]3(C)[C@H]1[C@@H]2C (stereo partly drawn) | > 4 mM (inactive)
92 | CC[C@@]1(O)C[C@H](O[C@H]2C[C@H](N(C)C)[C@H](O)[C@H](C)O2)c2c(cc3c(c2O)C(=O)c2c(O)cccc2C3=O)[C@H]1C(=O)OC | > 4 mM (inactive)
93 | CC(=O)c1c(C)nc(-c2cccs2)n1O | > 4 mM (inactive)
94 | OCc1cc2ccccc2o1 | > 4 mM (inactive)
95 | CC(=O)c1c(O)c(C)c(O)c2c1OC1=CC(=O)C(C(C)=O)C(=O)C12C (stereo not drawn) | > 4 mM (inactive)
96 | Cc1cc(N2CCN(C)CC2)ncn1 | > 4 mM (inactive)

Row | SMILES | Kd
97 | CC1(C)Oc2ccc3ccc(=O)oc3c2CC1O (stereo not drawn) | > 4 mM (inactive)
98 | OCCNC(=S)Nc1ccc(F)cc1 | > 4 mM (inactive)
99 | CNC(=S)Nc1ncn(Cc2cccc(F)c2)n1 | > 4 mM (inactive)
100 | Cc1ccc(-c2nc(-c3cccnc3)no2)c(C)c1 | > 4 mM (inactive)
101 | Cc1cc(C)nc(/N=C(/N)N2CCC(C(N)=O)CC2)n1 | > 4 mM (inactive)
102 | O=C1COc2ccccc2C(=O)N1 | > 4 mM (inactive)
103 | O=C1NC2NC(=O)N(c3ccccc3)C2N1 (stereo not drawn) | > 4 mM (inactive)
104 | COc1cccc2c1CCC1=CC(=O)CC[C@@]12C | > 4 mM (inactive)
105 | COC(=O)c1cn(C(=O)OC)c2ccccc12 | > 4 mM (inactive)
106 | CC(=O)O[C@@H]1CC2C(C)(C)[C@@H](O)CC[C@]2(C)C2CC[C@@]3(C)[C@H](c4ccoc4)OC(=O)[C@H]4O[C@]43[C@@]21C (stereo partly drawn) | > 4 mM (inactive)
107 | CCC1(CC)C(=O)N=C(N)NC1=O | > 4 mM (inactive)
108 | CCOC(=O)c1ccc(Oc2ccc(C)nn2)cc1 | > 4 mM (inactive)
109 | CC1(C)C[C@@H]2C(=O)CC[C@H]3O[C@]3(C)CC[C@H]21 | > 4 mM (inactive)
110 | O=C(O)Cc1nc(-c2ccncc2)n[nH]1 | > 4 mM (inactive)
111 | Cc1ccnc(NS(=O)(=O)c2ccccc2)n1 | > 4 mM (inactive)
112 | CCN(CC)C(=O)c1n[nH]c(=O)c2ccccc12 | > 4 mM (inactive)
113 | COc1ccc(C2(C)CC(=O)NC2=O)cc1 (stereo not drawn) | > 4 mM (inactive)
114 | N[C@@H](Cc1cc(I)c(Oc2cc(I)c(O)c(I)c2)c(I)c1)C(=O)O | > 4 mM (inactive)
115 | COC(=O)c1oc2ccc(Cl)cc2c1NC(C)=O | > 4 mM (inactive)
116 | CCOc1ccc(-c2c(=O)n(O)c3ccccc3[n+]2[O-])cc1 | > 4 mM (inactive)
117 | O=c1[nH]cc(NC(=S)N2CCOCC2)c(=O)[nH]1 | > 4 mM (inactive)
118 | Cc1oc(-c2ccccc2)cc1C(=O)O | > 4 mM (inactive)
